Source: patent US10918645B2 (LIFEARC, priority 2016, dated 2021)

Key:
Assay type in all cases: biochemical
Settings in all cases: 1 μM inhibitor concentration
NEK6 = NEK6 (Homo sapiens (Human), UniProt Q9HC98); assay: NEK6 kinase selectivity assay
Method: NEK6 (5-20 mU diluted in 50 mM Tris (pH 7.5), 0.1 mM EGTA, 1 mg/ml BSA, 0.1%, b-Mercaptoethanol) is assayed against NEK6 peptide ([…]) in a final volume of 25.5 μl containing 50 mM Tris (pH 7.5), 0.1 mM EGTA, 0.01% Brij, 0.1%, b-Mercaptoethanol, NEK6 peptide (0.3 mM), 10 mM magnesium acetate and 0.05 mM [33P-g-ATP](500-1000 cpm/pmole) and incubated for 30 min at room temperature. Assays are stopped by addition of 5 μl of 0.5 M (3%) orthophosphoric acid and then harvested onto P81 Unifilter plates with a wash buffer of 50 mM orthophosphoric acid.

RIPK2 = RIPK2 (Homo sapiens (Human), UniProt O43353); assay: RIPK2 kinase selectivity assay
Method: (§1) RIPK2 (5-20 mU diluted in 50 mM Tris pH 7.5, 0.1 mM EGTA, 0.1% β-mercaptoethanol, 1 mg/ml BSA) is assayed against MBP in a final volume of 25.51 μl containing 50 mM Tris pH 7.5, 0.1 mM EGTA, 0.33 mg/ml MBP, 10 mM magnesium acetate and 0.02 mM [33P-γ-ATP] (50-1000 cpm/pmole) and incubated for 30 min at room temperature. Assays are stopped by addition of 5 μl of 0.5 M (3%) orthophosphoric acid and then harvested onto P81 Unifilter plates with a wash buffer of 50 mM orthophosphoric acid.

PKD1 = PKD1 (Homo sapiens (Human), UniProt Q15139); assay: PKD1 kinase selectivity assay
Method: (§2) PKD1 (5-20 mU diluted in 50 mM Tris pH 7.5, 0.1 mM EGTA, 0.1% b-mercaptoethanol, 1 mg/ml BSA) is assayed substrate peptide ([…]) in a final volume of 25.5 μl containing 50 mM Tris pH 7.5, 0.05% b-mercaptoethanol, 30 μM substrate peptide, 10 mM magnesium acetate and 0.05 mM [33P-g-ATP] (50-1000 cpm/pmole) and incubated for 30 min at room temperature. Assays are stopped by addition of 5 μl of 0.5 M (3%) orthophosphoric acid and then harvested onto P81 Unifilter plates with a wash buffer of 50 mM orthophosphoric acid.

IR = IR (Homo sapiens (Human), UniProt P06213); assay: IR kinase selectivity assay
Sequence of IR (P06213 28-1382): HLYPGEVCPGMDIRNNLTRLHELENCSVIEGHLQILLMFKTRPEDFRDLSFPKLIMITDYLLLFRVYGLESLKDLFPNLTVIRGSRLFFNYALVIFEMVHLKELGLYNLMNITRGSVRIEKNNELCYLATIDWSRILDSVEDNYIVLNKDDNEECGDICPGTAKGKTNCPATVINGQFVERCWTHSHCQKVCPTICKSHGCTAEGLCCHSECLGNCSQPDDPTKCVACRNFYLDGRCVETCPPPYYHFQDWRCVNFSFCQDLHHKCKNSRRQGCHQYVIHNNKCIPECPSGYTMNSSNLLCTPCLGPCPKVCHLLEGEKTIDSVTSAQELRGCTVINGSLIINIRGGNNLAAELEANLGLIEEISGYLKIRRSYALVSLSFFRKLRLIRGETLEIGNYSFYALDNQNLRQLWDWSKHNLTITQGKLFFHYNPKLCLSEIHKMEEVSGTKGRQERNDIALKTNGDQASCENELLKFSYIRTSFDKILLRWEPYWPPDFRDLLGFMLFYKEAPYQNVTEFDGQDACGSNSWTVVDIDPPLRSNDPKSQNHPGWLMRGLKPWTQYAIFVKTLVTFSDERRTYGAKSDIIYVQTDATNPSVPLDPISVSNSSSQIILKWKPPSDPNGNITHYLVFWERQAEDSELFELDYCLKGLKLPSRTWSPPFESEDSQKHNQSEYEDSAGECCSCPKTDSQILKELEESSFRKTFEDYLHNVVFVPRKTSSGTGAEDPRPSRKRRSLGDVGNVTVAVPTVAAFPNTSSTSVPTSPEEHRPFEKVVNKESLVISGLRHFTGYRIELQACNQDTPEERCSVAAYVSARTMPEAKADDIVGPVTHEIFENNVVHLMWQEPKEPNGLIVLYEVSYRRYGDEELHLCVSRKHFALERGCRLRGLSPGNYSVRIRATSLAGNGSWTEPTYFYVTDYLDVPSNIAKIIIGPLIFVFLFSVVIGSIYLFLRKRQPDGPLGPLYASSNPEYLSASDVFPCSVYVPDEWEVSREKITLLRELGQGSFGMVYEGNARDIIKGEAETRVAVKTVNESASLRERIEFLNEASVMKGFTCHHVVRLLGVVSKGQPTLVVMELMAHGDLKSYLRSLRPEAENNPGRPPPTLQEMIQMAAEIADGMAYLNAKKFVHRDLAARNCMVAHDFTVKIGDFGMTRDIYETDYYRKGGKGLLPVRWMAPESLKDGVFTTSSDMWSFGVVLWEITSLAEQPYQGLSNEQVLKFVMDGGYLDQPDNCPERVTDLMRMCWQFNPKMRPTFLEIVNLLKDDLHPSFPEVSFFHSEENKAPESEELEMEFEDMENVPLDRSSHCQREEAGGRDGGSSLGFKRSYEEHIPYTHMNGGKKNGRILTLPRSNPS
Method: as §2, with “IR-HIS” for “PKD1”, “EGTA,” for “EGTA, 0.1% b-mercaptoethanol,”, “assayed against a” for “assayed”, “300 µM” for “0.05% b-mercaptoethanol, 30 μM”, “0.02” for “0.05”

GCK = GCK (Homo sapiens (Human), UniProt Q12851); assay: GCK kinase selectivity assay
Sequence of GCK (Q12851 whole entry): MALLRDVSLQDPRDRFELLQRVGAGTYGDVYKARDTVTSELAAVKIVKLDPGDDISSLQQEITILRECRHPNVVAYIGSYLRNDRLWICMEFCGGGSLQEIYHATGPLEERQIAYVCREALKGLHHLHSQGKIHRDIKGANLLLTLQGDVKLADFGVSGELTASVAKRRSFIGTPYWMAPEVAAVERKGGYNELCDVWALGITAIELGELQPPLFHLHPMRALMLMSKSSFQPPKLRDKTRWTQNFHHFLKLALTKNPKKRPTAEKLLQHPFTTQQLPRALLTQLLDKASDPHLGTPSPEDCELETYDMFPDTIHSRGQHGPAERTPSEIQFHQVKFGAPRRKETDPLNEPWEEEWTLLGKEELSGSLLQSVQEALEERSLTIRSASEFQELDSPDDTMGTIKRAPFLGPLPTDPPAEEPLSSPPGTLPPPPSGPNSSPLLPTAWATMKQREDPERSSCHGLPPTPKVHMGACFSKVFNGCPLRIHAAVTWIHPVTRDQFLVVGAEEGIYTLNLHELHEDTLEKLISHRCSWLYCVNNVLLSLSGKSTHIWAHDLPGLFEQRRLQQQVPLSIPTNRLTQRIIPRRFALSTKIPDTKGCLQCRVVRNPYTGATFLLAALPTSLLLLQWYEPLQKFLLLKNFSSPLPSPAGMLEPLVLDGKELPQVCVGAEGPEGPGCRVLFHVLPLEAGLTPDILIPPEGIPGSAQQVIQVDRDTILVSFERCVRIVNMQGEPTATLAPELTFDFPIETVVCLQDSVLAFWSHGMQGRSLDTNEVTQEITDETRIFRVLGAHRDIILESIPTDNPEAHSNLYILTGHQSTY
Method: as §1, with “GCK” for “RIPK2”, “25.5” for “25.51”

TBK1 = TBK1 (Homo sapiens (Human), UniProt Q9UHD2); assay: TBK1 kinase selectivity assay
Sequence of TBK1 (Q9UHD2 whole entry, species assumed): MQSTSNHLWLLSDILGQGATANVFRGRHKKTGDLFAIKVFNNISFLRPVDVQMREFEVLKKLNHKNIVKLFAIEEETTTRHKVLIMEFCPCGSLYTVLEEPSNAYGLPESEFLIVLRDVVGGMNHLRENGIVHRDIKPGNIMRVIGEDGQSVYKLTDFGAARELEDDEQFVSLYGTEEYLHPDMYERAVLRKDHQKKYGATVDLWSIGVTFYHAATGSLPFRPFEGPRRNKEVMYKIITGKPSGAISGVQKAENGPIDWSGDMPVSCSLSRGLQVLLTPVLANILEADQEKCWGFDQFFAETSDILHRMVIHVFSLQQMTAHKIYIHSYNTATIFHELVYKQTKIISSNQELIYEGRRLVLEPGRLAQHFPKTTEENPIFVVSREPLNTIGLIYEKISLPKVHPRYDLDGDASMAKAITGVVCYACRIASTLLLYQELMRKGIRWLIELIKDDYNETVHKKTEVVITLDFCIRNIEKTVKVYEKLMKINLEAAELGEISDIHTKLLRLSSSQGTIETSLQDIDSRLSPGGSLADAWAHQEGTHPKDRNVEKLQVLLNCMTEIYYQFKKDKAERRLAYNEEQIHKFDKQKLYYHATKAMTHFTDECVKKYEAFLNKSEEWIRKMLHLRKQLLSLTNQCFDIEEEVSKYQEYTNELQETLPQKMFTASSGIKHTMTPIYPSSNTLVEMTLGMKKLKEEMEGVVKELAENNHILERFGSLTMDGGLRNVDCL
Method: as §2, with “TBK1 (DU12569)” for “PKD1”, “EGTA,” for “EGTA, 0.1% b-mercaptoethanol,”, “assayed against a” for “assayed”, “300” for “0.05% b-mercaptoethanol, 30”

IGF-1R = IGF-1R (Homo sapiens (Human), UniProt P08069); assay: IGF-1R kinase selectivity assay
Sequence of IGF-1R (P08069 31-1367, species assumed): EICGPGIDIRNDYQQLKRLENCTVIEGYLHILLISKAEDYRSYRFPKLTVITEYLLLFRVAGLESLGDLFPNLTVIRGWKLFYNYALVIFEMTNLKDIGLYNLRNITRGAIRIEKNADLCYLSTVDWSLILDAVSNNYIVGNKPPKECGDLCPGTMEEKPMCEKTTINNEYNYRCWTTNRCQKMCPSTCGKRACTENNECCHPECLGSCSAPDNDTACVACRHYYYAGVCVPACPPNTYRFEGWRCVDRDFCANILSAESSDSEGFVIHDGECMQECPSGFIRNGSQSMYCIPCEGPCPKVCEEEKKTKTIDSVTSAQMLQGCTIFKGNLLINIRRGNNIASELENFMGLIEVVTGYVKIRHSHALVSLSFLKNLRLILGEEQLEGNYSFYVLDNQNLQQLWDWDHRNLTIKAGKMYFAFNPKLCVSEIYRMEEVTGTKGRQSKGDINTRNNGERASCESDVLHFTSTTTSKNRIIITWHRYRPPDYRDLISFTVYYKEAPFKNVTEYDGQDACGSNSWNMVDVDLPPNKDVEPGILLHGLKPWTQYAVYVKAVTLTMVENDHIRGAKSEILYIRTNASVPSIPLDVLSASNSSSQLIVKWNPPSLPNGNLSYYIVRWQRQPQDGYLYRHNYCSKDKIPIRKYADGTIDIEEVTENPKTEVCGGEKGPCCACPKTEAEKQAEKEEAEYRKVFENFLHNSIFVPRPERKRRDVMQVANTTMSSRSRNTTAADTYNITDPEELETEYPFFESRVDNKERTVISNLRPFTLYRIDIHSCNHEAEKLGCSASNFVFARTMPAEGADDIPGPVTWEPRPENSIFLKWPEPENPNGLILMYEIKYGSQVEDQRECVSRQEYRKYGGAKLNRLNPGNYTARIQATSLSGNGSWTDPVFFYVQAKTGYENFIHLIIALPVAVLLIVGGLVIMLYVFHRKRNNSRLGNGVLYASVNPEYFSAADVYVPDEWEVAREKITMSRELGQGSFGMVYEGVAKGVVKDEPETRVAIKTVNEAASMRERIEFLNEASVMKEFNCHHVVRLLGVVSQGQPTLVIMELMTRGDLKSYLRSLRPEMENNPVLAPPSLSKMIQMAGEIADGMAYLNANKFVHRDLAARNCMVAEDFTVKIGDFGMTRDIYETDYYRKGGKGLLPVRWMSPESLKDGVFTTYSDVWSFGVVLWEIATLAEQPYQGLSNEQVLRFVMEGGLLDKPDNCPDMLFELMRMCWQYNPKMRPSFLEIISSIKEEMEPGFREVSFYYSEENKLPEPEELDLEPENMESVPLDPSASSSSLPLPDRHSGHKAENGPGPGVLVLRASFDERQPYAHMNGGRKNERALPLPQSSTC
Method: as §2, with “IGF-1R” for “PKD1”, “EGTA,” for “EGTA, 0.1% b-mercaptoethanol,”, “assayed against a” for “assayed”, “300 µM” for “0.05% b-mercaptoethanol, 30 μM”, “0.005” for “0.05”

JNK1 = JNK1 (Homo sapiens (Human), UniProt P45983); assay: JNK1 kinase selectivity assay
Sequence of JNK1 (P45983 other isoform, or with tags, fused parts or gaps, species assumed): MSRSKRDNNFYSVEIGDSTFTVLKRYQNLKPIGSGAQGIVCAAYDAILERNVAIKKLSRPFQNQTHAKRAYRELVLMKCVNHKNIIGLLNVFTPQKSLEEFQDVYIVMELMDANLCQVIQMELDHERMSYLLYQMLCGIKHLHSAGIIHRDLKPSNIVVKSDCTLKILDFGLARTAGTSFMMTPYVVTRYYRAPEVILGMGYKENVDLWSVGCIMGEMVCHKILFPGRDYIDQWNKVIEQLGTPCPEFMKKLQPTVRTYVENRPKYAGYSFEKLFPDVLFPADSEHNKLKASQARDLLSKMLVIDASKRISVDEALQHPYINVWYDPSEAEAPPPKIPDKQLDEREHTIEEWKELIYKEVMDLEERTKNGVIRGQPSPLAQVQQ
Method: JNK1a1/SAPK1c (5-20 mU diluted in 50 mM Tris pH 7.5, 0.1 mM EGTA, 1 mg/ml BSA, 0.1% b-mercaptoethanol) is assayed against ATF2 (activating transcription factor in a final volume of 25.5 μl in 50 mM Tris pH 7.5, 0.1 mM EGTA, 0.1% b-Mercaptoethanol, ATF2 (3 μM), 10 mM magnesium acetate and 0.02 mM [33P-g-ATP] (500-1000 cpm/pmole) and incubated for 30 min at room temperature. Assays are stopped by addition of 5 μl of 0.5 M (3%) orthophosphoric acid and then harvested onto P81 Unifilter plates with a wash buffer of 50 mM orthophosphoric acid.

MNK2 = MNK2 (Homo sapiens (Human), UniProt Q9HBH9); assay: MNK2 kinase selectivity assay
Sequence of MNK2 (Q9HBH9 whole entry, species assumed): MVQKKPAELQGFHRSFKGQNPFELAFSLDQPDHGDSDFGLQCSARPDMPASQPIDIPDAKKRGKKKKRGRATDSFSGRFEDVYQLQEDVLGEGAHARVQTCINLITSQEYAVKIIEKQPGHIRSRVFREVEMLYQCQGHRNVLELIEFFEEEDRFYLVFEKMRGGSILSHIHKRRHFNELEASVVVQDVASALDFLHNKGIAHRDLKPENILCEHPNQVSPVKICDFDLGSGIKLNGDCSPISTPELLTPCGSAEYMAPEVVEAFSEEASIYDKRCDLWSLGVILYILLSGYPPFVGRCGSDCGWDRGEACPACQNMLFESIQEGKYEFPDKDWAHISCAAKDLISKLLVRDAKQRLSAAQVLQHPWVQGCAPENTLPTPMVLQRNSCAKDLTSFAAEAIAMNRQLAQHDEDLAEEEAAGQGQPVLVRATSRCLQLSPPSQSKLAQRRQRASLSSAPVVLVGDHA
Method: 5-20 mU of MNK2 (diluted in 50 mM Tris (pH 7.5), 0.1 mM EGTA, 1 mg/ml BSA, 0.1%, b-Mercaptoethanol) is assayed against substrate peptide (eIF4E) in a final volume of 25.5 μl containing 50 mM Tris (pH 7.5), 0.1 mM EGTA, 0.1%, b-Mercaptoethanol, 0.5 mg/ml substrate peptide, 10 mM magnesium acetate and 0.05 mM [33P-g-ATP](500-1000 cpm/pmole) and incubated for 30 mins at room temperature. Assays are stopped by addition of 5 μl of 0.5M (3%) orthophosphoric acid. Assays are harvested onto P81 Unifilter plates using a wash buffer of 50 mM orthophosphoric acid.

| SMILES | percentage inhibition of NEK6 (NEK6) | percentage inhibition of RIPK2 (RIPK2) | percentage inhibition of PKD1 (PKD1) | percentage inhibition of IR (IR) | percentage inhibition of GCK (GCK) | percentage inhibition of TBK1 (TBK1) | percentage inhibition of IGF-1R (IGF-1R) | percentage inhibition of JNK1 (JNK1) | percentage inhibition of MNK2 (MNK2) |
| --- | --- | --- | --- | --- | --- | --- | --- | --- | --- |
| c1cc2[nH]nc3c2c(n1)N(C1CCC1)CCC3 [Example 22, 6-cyclobutyl-6,7,8,9-tetrahydro-2H-1,2,5,6-tetraazabenzo[cd]azulene] | 3 percentage | 0 percentage | 20 percentage | 27 percentage | 56 percentage | 0 percentage | 9 percentage | 0 percentage | 0 percentage |
| c1cc2[nH]nc3c2c(n1)N(C1CCCC1)CCC3 [Example 23, 6-cyclopentyl-6,7,8,9-tetrahydro-2H-1,2,5,6-tetraazabenzo[cd]azulene] | 1 percentage | 0 percentage | 9 percentage | 1 percentage | 41 percentage | 0 percentage | 2 percentage | 0 percentage | 0 percentage |
| c1cc2[nH]nc3c2c(n1)N(C1CCOCC1)CCC3 [Example 29, 6-(tetrahydro-2H-pyran-4-yl)-6,7,8,9-tetrahydro-2H-1,2,5,6-tetraazabenzo[cd]azulene] | 1 percentage | 0 percentage | 3 percentage | 2 percentage | 67 percentage | 0 percentage | 9 percentage | 0 percentage | 0 percentage |
| CN1CCC(N2Cc3ccccc3-c3n[nH]c4ccnc2c34)CC1 [Example 55] | 0 percentage | 7 percentage | 73 percentage | 5 percentage | 71 percentage | 5 percentage | 8 percentage | 49 percentage | 40 percentage |
| CC(C)n1ncc2c1CN(C1CCN(C)CC1)c1nccc3[nH]nc-2c13 [Example 68] | 0 percentage | 0 percentage | 46 percentage | 0 percentage | 27 percentage | 5 percentage | 0 percentage | 48 percentage | 18 percentage |
